{
  "source": "paper PMC6566782",
  "about": "“Prodrugs for Skin Delivery of Menahydroquinone-4, an Active Form of Vitamin K2(20), Could Overcome the Photoinstability and Phototoxicity of Vitamin K2(20)” (International Journal of Molecular Sciences, 2019)",
  "key": {"[1]": {"assay": "Singlet oxygen generation assay (p-nitrosodimethylaniline-based ROS assay) after UVA irradiation", "format": "physicochemical", "details": "phosphate-buffered aqueous solution pH 7.4, UVA irradiation 0–15 J/cm^2", "method": "It has been reported that singlet oxygen promotes the peroxidation of skin surface lipids, resulting in the induction of skin inflammation. Thus, we measured the irradiation intensity-dependent generation of singlet oxygen by MK-4, MKH-DMG, and MKH-SUC in phosphate-buffered aqueous solution after UVA irradiation using a p-nitrosodimethylaniline-based ROS assay (Figure 4).\nMK-4 and MKH derivatives were dissolved in a phosphate buffer (NaPB, pH 7.4) containing 0.2% polyoxyethylene hydrogenated castor oil 40 (HCO 40, obtained as a gift sample from Nikko Chemicals Co., Ltd., Osaka, Japan), 2% dimethyl sulfoxide, and 0.1% glycerol. The solutions were treated according to the singlet oxygen assay method (The Japanese Center for the Validation of Alternative Methods, JaCVAM) and irradiated with UVA light from a CL-1000L UV Crosslinker (UVP, Upland, CA, USA). Absorbance was measured using an Infinite M200 PRO (Tecan Life Sciences, Zurich, Switzerland)."}, "[2]": {"tested_on": "HaCaT cells", "assay": "Cell viability assay (CellTiter-Glo) 24 h after UVA irradiation", "format": "cell-based, Human", "details": "24 h after UVA irradiation 15 J/cm^2", "method": "The in vitro phototoxicity of MK-4 and MKH derivatives were assessed by measuring the intracellular ROS generation and the viability of human epidermal keratinocyte cells (HaCaT) after UVA irradiation in the presence or absence of MK-4 and MKH derivatives. Intracellular ROS generation was determined using the cell permeable probe 2′,7′-dichlorofluorescein diacetate (DCFH-DA), which rapidly reacts with hydroxyl radicals. Cells without drug treatment or UVA irradiation were used as the control. ROS generation and cell viability are shown in Figure 5 and Figure 6, respectively.\nHaCaT cells were seeded at 1.0 × 10^5 cells/well in 96-well plates and cultured overnight. Thereafter, cells were washed with PBS, and test compound solutions in PBS described above were added to each well and re-incubated for 1 h. After incubation, cells were irradiated with UVA at an irradiation intensity of 15 J/cm^2. After irradiation, cells were washed twice with PBS and replaced in culture medium. After 24 h incubation, cell viability was measured using a CellTiter-Glo® Luminescent Cell Viability Assay (Promega, Madison, WI, USA)."}, "[3]": {"tested_on": "HaCaT cells", "assay": "Intracellular MKO levels after treatment with sunlight-irradiated MK-4 and MKH derivatives", "format": "cell-based, Human", "details": "48 h treatment, compound irradiated with sunlight 12,000 lx for 3 h", "method": "To confirm whether MKH prodrugs could successfully deliver MKH to dermal cells under sunlight, the intracellular level of MKO in HaCaT cells was determined following administration of MK-4 and MKH derivatives in the presence or absence of artificial sunlight irradiation. […] MKO levels were increased after administration of MKH-DMG and MKH-SUC in sunlight, but these were approximately 60% that of the cells treated with their respective compounds in shading conditions.\nHaCaT cells were seeded at 5.0 × 10^4 cells/well in 24-well plates and allowed to attach for 48 h. Cells were cultured in medium containing 5 µM MK-4, MKH-DMG, or MKH-SUC, then medium was removed and cells were washed twice with PBS. Cells were collected in 500 µL of PBS and sonicated. Cell homogenates were combined with an equal volume of methanol and three times volume of n-hexane, vortexed for 2 min, and centrifuged at 1750× g for 10 min. The organic layer was evaporated under N2 gas. The residue was reconstituted with 20 μL of methanol, and subjected to LC-MS/MS, as described below. The protein concentration of the cell homogenate was determined using a BCA protein assay kit (Thermo Fisher Scientific, Waltham, MA, USA).\nSolutions of 200 µM MK-4, MKH-DMG, or MKH-SUC in ethanol were irradiated with artificial sunlight for 3 h at 12,000 lx in quartz cells. After irradiation, ethanol was evaporated under N2 gas. […]"}},
  "data": [
    {"smiles": "CC(C)=CCC/C(C)=C/CC/C(C)=C/CC/C(C)=C/CC1=C(C)C(=O)c2ccccc2C1=O", "note": "[MK-4, menaquinone-4, reference compound]", "values": [
      {"measurement": "singlet oxygen generation", "setting": "[1]", "value": "increased formation of singlet oxygen in an irradiation energy-dependent manner"},
      {"measurement": "cell viability", "setting": "[2]", "value": "decreased dose-dependently"},
      {"measurement": "intracellular MKO level after sunlight irradiation compared to shade", "setting": "[3]", "value": "seriously reduced"}
    ]}
  ]
}
